Measurements published in patent publication US8519136B2, “Aminopyridine derivatives having aurora a selective inhibitory action” (MSD K.K., priority 2008, dated 2013).
Where a name gives a salt, the structure may show the parent alone.

Key:
[1] = biological target: T1, His-tagged human Aurora A (Homo sapiens, UniProt O14965); test: Aurora A inhibitory activity (IMAP fluorescence polarization); assay type: biochemical; conditions: 20 μM ATP, 30° C., 120 minutes
T1 construct: His (N); made in house; host or cells: Escherichia coli BL21-CodonPlus(DE3)-RIL
T1 sequence (O14965 1-403): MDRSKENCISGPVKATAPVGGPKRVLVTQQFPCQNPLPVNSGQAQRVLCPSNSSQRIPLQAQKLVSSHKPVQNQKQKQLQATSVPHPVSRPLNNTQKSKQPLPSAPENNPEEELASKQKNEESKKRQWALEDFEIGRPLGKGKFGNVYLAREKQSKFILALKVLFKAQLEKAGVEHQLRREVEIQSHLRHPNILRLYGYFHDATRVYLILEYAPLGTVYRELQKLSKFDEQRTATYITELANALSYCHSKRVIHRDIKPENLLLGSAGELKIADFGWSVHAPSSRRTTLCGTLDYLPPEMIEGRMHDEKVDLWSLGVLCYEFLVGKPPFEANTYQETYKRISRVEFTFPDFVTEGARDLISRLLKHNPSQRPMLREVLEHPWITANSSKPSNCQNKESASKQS
Source text: cDNA of N-terminal His-tagged human Aurora A was integrated into an expression vector, which was then highly expressed in Escherichia coli BL21-CodonPlus(DE3)-RIL cells. The Escherichia coli was harvested and lysed, and then the His-tagged human Aurora A protein was applied onto a nickel chelate column and eluted from the column with imidazole. The active fractions were desalted with a desalting column to give a purified enzyme.
For measurement of the activity of Aurora A, the substrate used was a synthetic peptide (5-FAM (5-carboxyfluorescein)-γ-aminobutyric acid-Ala-Leu-Arg-Arg-Ala-Ser-Leu-Gly-NH2) (SEQ.ID.NO.: 1), which was purchased from Toray Research Center, Inc.
For the phosphorylation reaction, the method by Upstate, Inc. [Kinase Profiler™ Assay Protocols] was referred to, and phosphorylation of the substrate was detected using IMAP® technology (Molecular Devices, Co. Ltd.) (Gaudet E W. et. al, J. Biomol. Screen, 8, 164-175 (2003)). Concretely, the phosphorylation reaction and the detection were carried out as follows:
The phosphorylation reaction was conducted using 384 well plate, and the reaction volume was 10 μl/well. The reaction buffer is comprised of 50 mM Tris-chloride buffer (pH 7.4), 15 mM magnesium acetate, and 0.2 mM ethylenediamine-N,N,N′,N′-tetraacetic acid (EDTA). Thereto, the purified Aurora A protein, 100 nM of the peptide substrate, and 20 μM of adenosine 5′-triphosphate (ATP) were added, and then the reaction was carried out at 30° C. for 120 minutes.
Thereafter, in order to terminate and detect the reaction, 30 μl of the IMAP (registered trademark) binding reagent (IMAP Progressive Binding Reagent, R7284) that had been diluted (1:400) in the 1×IMAP binding buffer A (IMAP Progressive Binding Buffer A, 5× stock, R7282) was added to each well. The solution stood still for 60 minutes in the dark, and then fluorescence polarization was measured using a high-end microplate reader (excitation wavelength: 485 nm; emission wavelength: 520 nm).
(§1) The compound to be tested was added to the reaction system such that a dilution series of the compound in dimethylsulfoxide (DMSO) was prepared, and then 0.5 μL of this solution was added for the testing to each well. Each control well was provided by adding 0.5 μL of DMSO to the well in place of the DMSO solution containing the compound to be tested.

[2] = biological target: T2, GST-tagged human Aurora B(AurB)/His-tagged human INCENP complex proteins (Homo sapiens, UniProt Q96GD4); test: Aurora B inhibitory activity (Method A, IMAP kit); assay type: biochemical; conditions: 40 μM ATP, 25° C., 45 minutes
T2 construct: GST; purchased Carna Biosciences, Inc
Description: An assay development kit for IMAP (registered trademark) (Aurora B), purchased from Carna Biosciences, Inc., was used for phosphorylation reaction, and the phosphorylation of a substrate was detected using the IMAP technology. The assay development kit used is comprised of an assay buffer, GST-tagged human Aurora B(AurB)/His-tagged human INCENP complex proteins (amino acid sequence: 803-916, AAU04398.1), and an ATP/substrate solution. Using the same, the phosphorylation reaction was conducted in accordance with a partially revised protocol attached to the kit, and then the phosphorylation of the substrate was detected using the IMAP technology.
For the phosphorylation reaction, 384 well plate was used, and the reaction volume was 10 μl/well. The composition of the reaction buffer (assay buffer) is comprised of 20 mM of HEPES buffer (pH 7.4), 0.01% Tween-20, and 2 mM of dithiothreitol (DTT). Thereto, AurB/INCENP complex protein, 100 nM of the substrate, and 40 μM of ATP, and 1 mM of magnesium salt were added, and then the reaction was conducted at 25° C. for 45 minutes. Thereafter, in order to terminate and detect the reaction, 30 μl of the IMAP (registered trademark) binding reagent (IMAP Progressive Binding Reagent, R7284) that had been diluted (1:400) in the 1×IMAP binding buffer A (IMAP Progressive Binding Buffer A, 5× stock, R7282) was added to each well. The solution stood still for 60 minutes in the dark, and then fluorescence polarization was measured using a high-end microplate reader (excitation wavelength: 485 nm; emission wavelength: 520 nm).
as §1, with “DMSO” for “dimethylsulfoxide (DMSO)”

[3] = tested on: Human cervical cancer cells (HeLa S3); test: Effect by combined use of drugs in cells (with docetaxel), WST-8 method; assay type: cell-based; conditions: docetaxel 0.3 nM alone, HeLa S3, three days, DMSO = 0%
Description: Fetal calf serum (FCS) was purchased from Moregate Biotech, DMEM medium from Invitrogen Corp., docetaxel (tradename: Taxere) from Sigma-Aldrich, Inc., and WST-8 from Kishida Chemical Co., Ltd.
Human cervical cancer cells (HeLa S3) were obtained from the American Type Culture Collection (ATCC).
Cells were suspended in a DMEM medium containing 10% FCS, and the cell suspension was dispensed to two 96-well plastic plates at a rate of 750 cells/100 microliters per well. The plates were incubated overnight in 5% CO2-95% air at 37° C. A drug was subjected to graded dilution in dimethylsulfoxide and further diluted with DMSO or with a DMEM medium containing 10% FCS and also containing 0.6 nM docetaxel. Then, the dilutions were each dispensed to one of the plates on which cells had been disseminated, at a rate of 100 microliters per well. The final concentration of docetaxel at this stage was 0.3 nM. Also, the concentrations in the case of sole administration of the compound according to the invention were 0.003, 0.01, 0.03, 0.1, 0.3, 1, 3 and 10 μM. The plates were incubated for further three days in 5% CO2-95% air at 37° C. Cell growth after incubation was measured by the WST-8 method (H. Tominaga, et al., Anal. Commun., 36, 47-50 (1999)). Here, the WST-8 method refers to a method in which 20 microliters of a WST-8 reagent solution is added to each well, incubation is conducted at 37° C. for 60 minutes, the plate is stirred, and the amount of formazan produced is measured by a colorimetric method to determine the inhibitory rate of the drug. The growth inhibitory effects of docetaxel and of the compound according to the invention were determined, with the value obtained in sole treatment of DMSO being defined as 0%.

T2 sequence (Q96GD4 whole entry): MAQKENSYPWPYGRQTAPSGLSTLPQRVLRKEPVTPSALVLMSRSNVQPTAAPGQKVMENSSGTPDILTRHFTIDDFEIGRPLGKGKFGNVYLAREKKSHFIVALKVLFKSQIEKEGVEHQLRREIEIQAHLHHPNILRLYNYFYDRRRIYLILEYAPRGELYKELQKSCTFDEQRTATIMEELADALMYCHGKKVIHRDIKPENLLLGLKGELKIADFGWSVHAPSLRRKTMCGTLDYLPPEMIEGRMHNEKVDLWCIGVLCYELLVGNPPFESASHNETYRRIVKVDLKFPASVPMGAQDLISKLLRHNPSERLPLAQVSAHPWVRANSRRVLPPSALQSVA
T2 sequence (Q9NQS7 803-916 partner limits assumed): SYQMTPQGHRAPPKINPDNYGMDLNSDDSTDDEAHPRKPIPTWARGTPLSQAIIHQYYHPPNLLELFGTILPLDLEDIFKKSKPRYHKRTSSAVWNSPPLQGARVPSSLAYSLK

SMILES	IC50 [1] [nM]	IC50 [2] [nM]	inhibition at 0.0003 µM ([3]; Homo sapiens, HeLa S3, 72 h, read-out: Cell growth inhibitory effect by sole administration of docetaxel (0.3 nM) (%)) [%]	Cell growth inhibitory effect by sole administration of docetaxel (0.3 nM) (%) [3] [%]
Cc1cc(Nc2cc[nH]n2)nc(CC2CCN(C(=O)c3cccc(Cl)c3F)CC2)n1 [Example 3, 2-((1-(3-chloro-2-fluorobenzoyl)piperidin-4-yl)methyl)-6-methyl-N-1H-pyrazol-3-ylpyrimidin-4-amine trifluoroacetate]	1.6	400	–	–
CCOC(=O)C1(Cc2cccc(Nc3cc[nH]n3)n2)CCN(C(=O)c2cccc(Cl)c2F)CC1 [Example 4, ethyl 1-(3-chloro-2-fluorobenzoyl)-4-((6-(1H-pyrazol-3-ylamino)pyridin-2-yl)methyl)piperidine-4-carboxylate]	1.14	> 1000	–	–
CCOC(=O)C1(Cc2cccc(Nc3cc[nH]n3)n2)CCN(C(=O)c2cccc(C(F)(F)F)c2F)CC1 [Example 5, ethyl 1-(2-fluoro-3-(trifluoromethyl)benzoyl)-4-((6-(1H-pyrazol-3-ylamino)pyridin-2-yl)methyl)piperidine-4-carboxylate]	0.63	555	–	–
NC(=O)C1(Cc2cccc(Nc3cc[nH]n3)n2)CCN(C(=O)c2cccc(Cl)c2F)CC1 [Example 6, 1-(3-chloro-2-fluorobenzoyl)-4-((6-(1H-pyrazol-3-ylamino)pyridin-2-yl)methyl)piperidine-4-carboxamide]	1.57	> 1000	–	–
NC(=O)C1(Cc2cccc(Nc3cc[nH]n3)n2)CCN(C(=O)c2cccc(C(F)(F)F)c2F)CC1 [Example 7, 1-(2-fluoro-3-(trifluoromethyl)benzoyl)-4-((6-(1H-pyrazol-3-ylamino)pyridin-2-yl)methyl)piperidine-4-carboxamide]	0.61	135	–	–
CONC(=O)C1(Cc2cccc(Nc3cc[nH]n3)n2)CCN(C(=O)c2cccc(C(F)(F)F)c2F)CC1 [Example 8, 1-(2-fluoro-3-(trifluoromethyl)benzoyl)-N-methoxy-4-((6-(1H-pyrazol-3-ylamino)pyridin-2-yl)methyl)piperidine-4-carboxamide]	0.79	555	–	–
O=C(c1cccc(F)c1F)N1CCC(Cc2cccc(Nc3cc[nH]n3)n2)(c2n[nH]c(=O)o2)CC1 [Example 11, 5-(1-(2,3-difluorobenzoyl)-4-((6-(1H-pyrazol-3-ylamino)pyridin-2-yl)methyl)piperidin-4-yl)-1,3,4-oxadiazol-2(3H)-one trifluoroacetate]	0.26	236	–	–
O=c1[nH]nc(C2(Cc3cccc(Nc4cc[nH]n4)n3)CCN(S(=O)(=O)c3cccc(Cl)c3Cl)CC2)o1 [Example 13, 5-(1((2,3-dichlorophenyl)sulfonyl)-4((6-(1H-pyrazol-3-ylamino)pyridin-2-yl)methyl)piperidin-4-yl)-1,3,4-oxadiazol-2(3H)-one trifluoroacetate]	2.55	609	–	–
Cc1cc(Nc2cccc(CC3(c4n[nH]c(=O)o4)CCN(C(=O)c4cccc(Cl)c4F)CC3)n2)n[nH]1 [Example 15, 5-(1-(3-chloro-2-fluorobenzoyl)-4-((6-((5-methyl-1H-pyrazol-3-yl)amino)pyridin-2-yl)methyl)piperidin-4-yl)-1,3,4-oxadiazol-2(3H)-one]	0.25	77.5	–	–
Cc1cc(Nc2cccc(CC3(c4n[nH]c(=O)o4)CCN(C(=O)c4cccc(F)c4F)CC3)n2)n[nH]1 [Example 16, 5-(1-(2,3-difluorobenzoyl)-4-((6-((5-methyl-1H-pyrazol-3-yl)amino)pyridin-2-yl)methyl)piperidin-4-yl)-1,3,4-oxadiazol-2(3H)-one]	0.41	157	–	–
Cc1cc(Nc2cc[nH]n2)nc(CC2(C(N)=O)CCN(C(=O)c3cccc(Cl)c3F)CC2)n1 [Example 18, 1-(3-chloro-2-fluorobenzoyl)-4-((4-methyl-6-(1H-pyrazol-3-ylamino)pyrimidin-2-yl)methyl)piperidine-4-carboxamide trifluoroacetate]	1.23	> 1000	–	–
CC(=O)O[C@@]12CO[C@@H]1C[C@H](O)[C@@]1(C)C(=O)[C@H](O)C3=C(C)[C@@H](OC(=O)[C@H](O)[C@@H](NC(=O)OC(C)(C)C)c4ccccc4)C[C@@](O)([C@@H](OC(=O)c4ccccc4)[C@H]21)C3(C)C [docetaxel, reference compound]	–	–	49.6	51.6
